{"source": "ChEMBL document CHEMBL3885881", "about": "“DrugMatrix”", "species": "Rattus norvegicus", "experiment": "DrugMatrix - Regimen: Daily Repeat", "assay_type": "toxicity, organism-based, Sprague-Dawley", "set-up": "regimen Daily Repeat, gender Male, age 6-8 weeks", "conditions": "in vivo, po, 0 mg/kg, route oral GAVAGE, dose level Control, vehicle 100 % WATER; for ABSOLUTE BASOPHIL / ABSOLUTE EOSINOPHIL / ABSOLUTE LYMPHOCYTE / ABSOLUTE MONOCYTE / ABSOLUTE SEGMENTED NEUTROPHIL / BASOPHIL / EOSINOPHIL / ERYTHROCYTE COUNT / HEMATOCRIT / HEMOGLOBIN / LEUKOCYTE COUNT / LYMPHOCYTE / MEAN CORPUSCULAR HEMOGLOBIN / MEAN CORPUSCULAR HEMOGLOBIN CONCENTRATION / MEAN CORPUSCULAR VOLUME / MONOCYTE / NEUTROPHIL / NUCLEATED RED BLOOD CELLS / PLATELET COUNT: tissue Blood; for ALANINE AMINOTRANSFERASE / ALBUMIN / ALKALINE PHOSPHATASE / ASPARTATE AMINOTRANSFERASE / BLOOD UREA NITROGEN / CARBON DIOXIDE / CHLORIDE / CHOLESTEROL / CREATINE PHOSPHOKINASE / CREATININE / GLUCOSE / LIPASE / PHOSPHORUS / POTASSIUM / SODIUM / TOTAL BILIRUBIN / TOTAL PROTEIN / URIC ACID: tissue Plasma"}
{"smiles": "Fc1ccc([C@@H]2CCNC[C@H]2COc2ccc3c(c2)OCO3)cc1", "note": "[PAROXETINE]", "values": [{"measurement": "ABSOLUTE BASOPHIL", "setting": "72 h, time 3 day", "result": 0, "unit": "CELLS/uL"}, {"measurement": "ABSOLUTE EOSINOPHIL", "setting": "72 h, time 3 day", "result": 32.5, "unit": "CELLS/uL"}, {"measurement": "ABSOLUTE LYMPHOCYTE", "setting": "72 h, time 3 day", "result": 9305.83, "unit": "CELLS/uL"}, {"measurement": "ABSOLUTE MONOCYTE", "setting": "72 h, time 3 day", "result": 43.83, "unit": "CELLS/uL"}, {"measurement": "ABSOLUTE SEGMENTED NEUTROPHIL", "setting": "72 h, time 3 day", "result": 817.83, "unit": "CELLS/uL"}, {"measurement": "BASOPHIL", "setting": "72 h, time 3 day", "result": 0, "unit": "%"}, {"measurement": "EOSINOPHIL", "setting": "72 h, time 3 day", "result": 0.33, "unit": "%"}, {"measurement": "ERYTHROCYTE COUNT", "setting": "72 h, time 3 day", "result": 5.38, "unit": "x10E6/uL"}, {"measurement": "HEMATOCRIT", "setting": "72 h, time 3 day", "result": 33.63, "unit": "%"}, {"measurement": "HEMOGLOBIN", "setting": "72 h, time 3 day", "result": 13.17, "unit": "G/DL"}, {"measurement": "LEUKOCYTE COUNT", "setting": "72 h, time 3 day", "result": 10.2, "unit": "x10E3/uL"}, {"measurement": "LYMPHOCYTE", "setting": "72 h, time 3 day", "result": 91.17, "unit": "%"}, {"measurement": "MEAN CORPUSCULAR HEMOGLOBIN", "setting": "72 h, time 3 day", "result": 24.5, "unit": "pg"}, {"measurement": "MEAN CORPUSCULAR HEMOGLOBIN CONCENTRATION", "setting": "72 h, time 3 day", "result": 39.13, "unit": "G/DL"}, {"measurement": "MEAN CORPUSCULAR VOLUME", "setting": "72 h, time 3 day", "result": 62.53, "unit": "fL"}, {"measurement": "MONOCYTE", "setting": "72 h, time 3 day", "result": 0.5, "unit": "%"}, {"measurement": "NEUTROPHIL", "setting": "72 h, time 3 day", "result": 8, "unit": "%"}, {"measurement": "NUCLEATED RED BLOOD CELLS", "setting": "72 h, time 3 day", "result": "0.17 /100WBC"}, {"measurement": "PLATELET COUNT", "setting": "72 h, time 3 day", "result": 858, "unit": "x10E3/uL"}, {"measurement": "ALANINE AMINOTRANSFERASE", "setting": "72 h, time 3 day", "result": 55.67, "unit": "u/L"}, {"measurement": "ALBUMIN", "setting": "72 h, time 3 day", "result": 4.07, "unit": "G/DL"}, {"measurement": "ALKALINE PHOSPHATASE", "setting": "72 h, time 3 day", "result": 337, "unit": "u/L"}, {"measurement": "ASPARTATE AMINOTRANSFERASE", "setting": "72 h, time 3 day", "result": 84, "unit": "u/L"}, {"measurement": "BLOOD UREA NITROGEN", "setting": "72 h, time 3 day", "result": 13.17, "unit": "mg/dL"}, {"measurement": "CARBON DIOXIDE", "setting": "72 h, time 3 day", "result": 34.17, "unit": "mmol/L"}, {"measurement": "CHLORIDE", "setting": "72 h, time 3 day", "result": 99.33, "unit": "MEQ/L"}, {"measurement": "CHOLESTEROL", "setting": "72 h, time 3 day", "result": 78.83, "unit": "mg/dL"}, {"measurement": "CREATINE PHOSPHOKINASE", "setting": "72 h, time 3 day", "result": 576.83, "unit": "u/L"}, {"measurement": "CREATININE", "setting": "72 h, time 3 day", "result": 0.17, "unit": "mg/dL"}, {"measurement": "GLUCOSE", "setting": "72 h, time 3 day", "result": 152.67, "unit": "mg/dL"}, {"measurement": "LIPASE", "setting": "72 h, time 3 day", "result": 9.5, "unit": "u/L"}, {"measurement": "PHOSPHORUS", "setting": "72 h, time 3 day", "result": 10.78, "unit": "mg/dL"}, {"measurement": "POTASSIUM", "setting": "72 h, time 3 day", "result": 6.34, "unit": "MEQ/L"}, {"measurement": "SODIUM", "setting": "72 h, time 3 day", "result": 144.12, "unit": "MEQ/L"}, {"measurement": "TOTAL BILIRUBIN", "setting": "72 h, time 3 day", "result": 0.18, "unit": "mg/dL"}, {"measurement": "TOTAL PROTEIN", "setting": "72 h, time 3 day", "result": 6.08, "unit": "G/DL"}, {"measurement": "URIC ACID", "setting": "72 h, time 3 day", "result": 0.65, "unit": "mg/dL"}, {"measurement": "ABSOLUTE BASOPHIL", "setting": "120 h, time 5 day", "result": 0, "unit": "CELLS/uL"}, {"measurement": "ABSOLUTE EOSINOPHIL", "setting": "120 h, time 5 day", "result": 31.17, "unit": "CELLS/uL"}, {"measurement": "ABSOLUTE LYMPHOCYTE", "setting": "120 h, time 5 day", "result": 7918.33, "unit": "CELLS/uL"}, {"measurement": "ABSOLUTE MONOCYTE", "setting": "120 h, time 5 day", "result": 58.33, "unit": "CELLS/uL"}, {"measurement": "ABSOLUTE SEGMENTED NEUTROPHIL", "setting": "120 h, time 5 day", "result": 725.5, "unit": "CELLS/uL"}, {"measurement": "BASOPHIL", "setting": "120 h, time 5 day", "result": 0, "unit": "%"}, {"measurement": "EOSINOPHIL", "setting": "120 h, time 5 day", "result": 0.33, "unit": "%"}, {"measurement": "ERYTHROCYTE COUNT", "setting": "120 h, time 5 day", "result": 5.32, "unit": "x10E6/uL"}, {"measurement": "HEMATOCRIT", "setting": "120 h, time 5 day", "result": 33.53, "unit": "%"}, {"measurement": "HEMOGLOBIN", "setting": "120 h, time 5 day", "result": 13.17, "unit": "G/DL"}, {"measurement": "LEUKOCYTE COUNT", "setting": "120 h, time 5 day", "result": 8.73, "unit": "x10E3/uL"}, {"measurement": "LYMPHOCYTE", "setting": "120 h, time 5 day", "result": 90.33, "unit": "%"}, {"measurement": "MEAN CORPUSCULAR HEMOGLOBIN", "setting": "120 h, time 5 day", "result": 24.82, "unit": "pg"}, {"measurement": "MEAN CORPUSCULAR HEMOGLOBIN CONCENTRATION", "setting": "120 h, time 5 day", "result": 39.33, "unit": "G/DL"}, {"measurement": "MEAN CORPUSCULAR VOLUME", "setting": "120 h, time 5 day", "result": 63.12, "unit": "fL"}, {"measurement": "MONOCYTE", "setting": "120 h, time 5 day", "result": 0.67, "unit": "%"}, {"measurement": "NEUTROPHIL", "setting": "120 h, time 5 day", "result": 8.67, "unit": "%"}, {"measurement": "NUCLEATED RED BLOOD CELLS", "setting": "120 h, time 5 day", "result": "0 /100WBC"}, {"measurement": "PLATELET COUNT", "setting": "120 h, time 5 day", "result": 1144.83, "unit": "x10E3/uL"}, {"measurement": "ALANINE AMINOTRANSFERASE", "setting": "120 h, time 5 day", "result": 60.5, "unit": "u/L"}, {"measurement": "ALBUMIN", "setting": "120 h, time 5 day", "result": 3.97, "unit": "G/DL"}, {"measurement": "ALKALINE PHOSPHATASE", "setting": "120 h, time 5 day", "result": 343.17, "unit": "u/L"}, {"measurement": "ASPARTATE AMINOTRANSFERASE", "setting": "120 h, time 5 day", "result": 80.83, "unit": "u/L"}, {"measurement": "BLOOD UREA NITROGEN", "setting": "120 h, time 5 day", "result": 15, "unit": "mg/dL"}, {"measurement": "CARBON DIOXIDE", "setting": "120 h, time 5 day", "result": 31, "unit": "mmol/L"}, {"measurement": "CHLORIDE", "setting": "120 h, time 5 day", "result": 99.75, "unit": "MEQ/L"}, {"measurement": "CHOLESTEROL", "setting": "120 h, time 5 day", "result": 71.5, "unit": "mg/dL"}, {"measurement": "CREATINE PHOSPHOKINASE", "setting": "120 h, time 5 day", "result": 237.17, "unit": "u/L"}, {"measurement": "CREATININE", "setting": "120 h, time 5 day", "result": 0.17, "unit": "mg/dL"}, {"measurement": "GLUCOSE", "setting": "120 h, time 5 day", "result": 137, "unit": "mg/dL"}, {"measurement": "LIPASE", "setting": "120 h, time 5 day", "result": 11.5, "unit": "u/L"}, {"measurement": "PHOSPHORUS", "setting": "120 h, time 5 day", "result": 10.13, "unit": "mg/dL"}, {"measurement": "POTASSIUM", "setting": "120 h, time 5 day", "result": 6, "unit": "MEQ/L"}, {"measurement": "SODIUM", "setting": "120 h, time 5 day", "result": 145, "unit": "MEQ/L"}, {"measurement": "TOTAL BILIRUBIN", "setting": "120 h, time 5 day", "result": 0.13, "unit": "mg/dL"}, {"measurement": "TOTAL PROTEIN", "setting": "120 h, time 5 day", "result": 5.82, "unit": "G/DL"}, {"measurement": "URIC ACID", "setting": "120 h, time 5 day", "result": 0.62, "unit": "mg/dL"}]}
